PMC11726677, “Eradication of Therapy-Resistant Cancer Stem Cells by Novel Telmisartan Derivatives” (Journal of Medicinal Chemistry, 2024)

Key:
STAT5 [1] = assay: Jess Simple Western immunoassay of STAT5/pSTAT5 in A549 cells; assay type: cell-based, human; conditions: A549, 10 μM, 72 h
Method: (§1) The impact of STAT5 activation on the mode of action was investigated in selected solid tumor cell lines as well.
(§2) Protein extracts were prepared as previously described.[44] Protein expression was determined using the capillary-based Jess Simple Western detection system (ProteinSimple, BioTechne) according to the manufacturer’s instructions at default settings. […] Horseradish peroxidase (HRP)-conjugated secondary antirabbit antibody, which was included in the Jess Detection Module kit, was used. Data analysis was conducted using Compass for Simple Western 4.0 software (ProteinSimple, BioTechne).

ABCB1 = assay: Jess Simple Western immunoassay of ABCB1 expression in K562-R cells; assay type: cell-based, human; conditions: 4 μM, 72 h
Method: as §2

STAT5 [2] = assay: Jess Simple Western immunoassay of STAT5/pSTAT5 in MCF7 cells; assay type: cell-based, human; conditions: MCF7, 10 μM, 72 h
Method: as §1, §2

DU145-DR cells (ABCB1+) = assay: SP analysis (DCV, flow cytometry) in DU145-DR cells; assay type: cell-based, human; conditions: 10 μM
Description: (§3) In recent studies, we described the side population (SP) phenotype as a marker that defines a heterogeneous cellular compartment with stem cell-characteristics in various cancer cell lines derived from solid tumors, such as ovarian cancer, breast cancer, and lung cancer.[26],[27]

STAT5 [3] = assay: Jess Simple Western immunoassay of STAT5/pSTAT5 in K562-R cells; assay type: cell-based, human; conditions: 4 μM + imatinib 1 μM, 6 h
Method: In the next step, the effects of the compounds (4 μM) on STAT5 in K562-R cells were examined.
as §2

[4] = biological target: ABCB1 transporter in K562-R cells (Homo sapiens, UniProt P08183); assay: Side population (SP) analysis, DCV staining, flow cytometry; conditions: 10 μM
A2780 V SP cells = assay: Chemosensitizing to paclitaxel: metabolic activity of A2780 V SP cells (MTT); assay type: cell-based, human; conditions: compound 10 μM + PTX 10 nM, 72 h
Method: (§4) The chemosensitizing efficacy was investigated in the ovarian and prostate cancer cell lines using the above-described metabolic activity assay. Paclitaxel (PTX) served as a reference (CTR) in A2780 V SP and IGROV-1 SP cells and docetaxel (DTX) in PC3-DR and D145-DR cells.
(§5) COS-7 (2 × 10^3 cells per well), IGROV-1 SP (2.5 × 10^3 cells per well), A2780 V SP (1.5 × 10^3 cells per well), PC3-DR (4 × 10^3 cells per well), and DU145-DR (3 × 10^3 cells per well) cells were seeded in 96-well plates in triplicates and after 24 h, the compounds were added at the respective concentrations. K562-R and K562 cells (2 × 10^4 cells per well), were treated with the compounds 2 h after seeding. […] A modified MTT colorimetric assay (EZ4U kit, Biomedica) was used to determine the metabolic activity of the tested cells, according to the manufacturer’s instructions. Absorbance was measured and the optical density of the respective FCS-containing medium and of the substrate was subtracted to exclude nonspecific staining. Metabolic activity in the absence of the compounds (CTR, DMSO) was set to 100% as reference.

PC3-DR cells (ABCB1+) = assay: SP analysis (DCV, flow cytometry) in PC3-DR cells; assay type: cell-based, human; conditions: 10 μM
Description: as §3

IGROV-1 SP cells = assay: Chemosensitizing to paclitaxel: metabolic activity of IGROV-1 SP cells (MTT); assay type: cell-based, human; conditions: compound 10 μM + PTX 10 nM, 72 h
Method: as §4, §5

A549 cells (ABCC1+) = assay: SP analysis (DCV, flow cytometry) in A549 cells; assay type: cell-based, human; conditions: A549, 10 μM
Description: as §3

STAT5 [5] = assay: Jess Simple Western immunoassay of STAT5/pSTAT5 in A2780 V SP cells; assay type: cell-based, human; conditions: 10 μM, 72 h
Method: as §1, §2

[6] = test system: IGROV-1 SP cells (ABCB1+); assay: SP analysis (DCV, flow cytometry) in IGROV-1 SP cells; assay type: cell-based, human; conditions: 10 μM
Description: as §3

[7] = test system: A2780 V SP cells (ABCB1+); assay: SP analysis (DCV, flow cytometry) in A2780 V SP cells; assay type: cell-based, human; conditions: 10 μM
Description: as §3

K562-R cells = assay: Chemosensitizing: metabolic activity of K562-R cells cotreated with imatinib (modified MTT assay); assay type: cell-based, human; conditions: 72 h
Method: The potential reduction in cell viability was determined using the modified MTT assay.
conc. 10 to 0.5 μM) over 72 h (Figure 3D).
as §5

STAT5 [8] = assay: Jess Simple Western immunoassay of STAT5/pSTAT5 in IGROV-1 SP cells; assay type: cell-based, human; conditions: 10 μM, 72 h
Method: as §1, §2

MCF7 cells (ABCG2+) = assay: SP analysis (DCV, flow cytometry) in MCF7 cells; assay type: cell-based, human; conditions: MCF7, 10 μM
Description: as §3

Chain of ABCB1 transporter in K562-R cells (P08183 whole entry): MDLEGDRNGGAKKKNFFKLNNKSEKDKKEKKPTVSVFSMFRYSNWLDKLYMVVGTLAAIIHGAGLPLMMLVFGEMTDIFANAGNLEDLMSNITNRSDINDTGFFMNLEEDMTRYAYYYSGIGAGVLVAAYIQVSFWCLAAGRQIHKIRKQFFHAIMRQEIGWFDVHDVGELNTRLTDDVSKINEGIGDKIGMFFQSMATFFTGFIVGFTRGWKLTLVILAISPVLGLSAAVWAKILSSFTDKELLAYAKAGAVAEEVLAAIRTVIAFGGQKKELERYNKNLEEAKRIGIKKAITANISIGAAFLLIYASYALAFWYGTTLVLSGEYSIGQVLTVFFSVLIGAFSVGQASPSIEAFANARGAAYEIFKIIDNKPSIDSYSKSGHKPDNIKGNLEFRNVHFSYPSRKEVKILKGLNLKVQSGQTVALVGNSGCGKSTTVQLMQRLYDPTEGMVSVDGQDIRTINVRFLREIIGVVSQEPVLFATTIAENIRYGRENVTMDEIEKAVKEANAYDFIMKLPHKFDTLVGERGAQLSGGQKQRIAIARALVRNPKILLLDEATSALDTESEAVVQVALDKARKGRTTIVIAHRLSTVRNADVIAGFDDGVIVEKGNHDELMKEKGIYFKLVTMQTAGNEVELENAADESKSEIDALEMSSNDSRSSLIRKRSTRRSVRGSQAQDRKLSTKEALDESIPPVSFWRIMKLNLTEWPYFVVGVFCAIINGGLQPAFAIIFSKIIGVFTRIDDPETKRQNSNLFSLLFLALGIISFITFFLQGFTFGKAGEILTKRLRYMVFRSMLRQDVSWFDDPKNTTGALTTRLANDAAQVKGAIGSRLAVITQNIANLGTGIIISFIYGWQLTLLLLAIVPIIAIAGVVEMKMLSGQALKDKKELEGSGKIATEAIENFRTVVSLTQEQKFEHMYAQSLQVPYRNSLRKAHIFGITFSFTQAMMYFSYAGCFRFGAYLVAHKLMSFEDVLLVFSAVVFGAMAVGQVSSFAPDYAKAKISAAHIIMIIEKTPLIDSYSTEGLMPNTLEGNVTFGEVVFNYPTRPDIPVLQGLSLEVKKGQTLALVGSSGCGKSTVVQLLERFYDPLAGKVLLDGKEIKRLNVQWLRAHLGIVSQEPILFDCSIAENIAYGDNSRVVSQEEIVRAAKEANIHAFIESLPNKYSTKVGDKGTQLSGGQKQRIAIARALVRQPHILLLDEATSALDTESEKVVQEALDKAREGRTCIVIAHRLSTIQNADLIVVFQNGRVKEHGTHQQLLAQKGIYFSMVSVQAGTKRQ

effect on SP phenotype / ABCB1 activity [4]: efficiently reduced the ABCB1 activity
relation of SP and NSP [4]: about 50%
SMILES: CCCc1nc2ccccc2n1Cc1ccc(-c2ccc(C(N)=O)cc2)cc1 [6c, 4′-((2-Propyl-1H-benzo[d]imidazole-1-yl)methyl)-[1,1′-biphenyl]-4-carboxamide]
phosphorylation status of STAT5 (STAT5 [1]): efficiently repressed the phosphorylation status of STAT5
ABCB1 protein expression (ABCB1): none of the compounds abrogated the ABCB1 protein expression
phosphorylation status of STAT5 (STAT5 [2]): efficiently repressed the phosphorylation status of STAT5
effect on SP phenotype (DU145-DR cells (ABCB1+)): effectively targeted the SP phenotype
phosphorylation of STAT5 (STAT5 [3]): marked repression of the STAT5 phosphorylation
chemosensitizing to PTX therapy (A2780 V SP cells): particularly sensitized
effect on SP phenotype (PC3-DR cells (ABCB1+)): effectively targeted the SP phenotype
viability / antimetabolic effect in combination with PTX (IGROV-1 SP cells): increased the antimetabolic effect of PTX
effect on SP phenotype (A549 cells (ABCC1+)): nearly inactive
phosphorylation status of STAT5 (STAT5 [5]): efficiently repressed the phosphorylation status of STAT5
effect on SP phenotype [6]: effectively targeted the SP phenotype
effect on SP phenotype [7]: effectively targeted the SP phenotype
EC50 (K562-R cells; K562-R, + imatinib 1 μM, read-out: SC50 (drug concentration eliciting 50% of the maximum sensitizing effect)): 1490 nM
metabolic activity of K562-R cells, combination with imatinib (K562-R cells; compound 10 μM + imatinib 1 μM): 8–24%
STAT5 protein expression (STAT5 [8]; IGROV1 SP): significantly suppressed STAT5
phosphorylation status of STAT5 (STAT5 [8]; IGROV-1 SP): efficiently repressed the phosphorylation status of STAT5
effect on SP phenotype (MCF7 cells (ABCG2+)): nearly inactive
